Source: patent US20090118365A1, “Use of Prodrugs of GABA B Agonists for Treating Neuropathic and Musculoskeletal Pain” (XenoPort, Inc, priority 2007, published 2009)

What was measured:
[1] = in vivo; cited from earlier work
[2] = rat, in vivo, 10 mg
Protocol: Rats were obtained commercially and were pre-cannulated in the both the ascending colon and the jugular vein. Animals were conscious at the time of the experiment. All animals were fasted overnight and until 4 hours post-dosing. […] Blood samples were analyzed as described according to the following procedure. […]
An API 2000 LC/MS/MS spectrometer equipped with Shimadzu 10ADVp binary pumps and a CTC HTS-PAL autosampler was used in the analysis. […] The peaks were integrated using Analyst 1.2 quantitation software.

[3] = male, cynomolgus monkey, in vivo
Description: The following method can be used to determine the oral bioavailability of GABAB agonist prodrugs provided by the present disclosure in Cymologous monkeys, and therefore the appropriateness of the GABAB agonist prodrugs for use in oral sustained release dosage forms for treating neuropathic and musculoskeletal pain.
All plasma samples were subsequently analyzed for (R)-baclofen and intact prodrug using the LC/MS/MS assay described above.

NCC(CC(=O)O)c1ccc(Cl)cc1 (racemic) [baclofen, (±)-4-Amino-3-(4-chlorophenyl)butanoic acid]
elimination half-life [1]: 3 to 4 h

CC(C)C(=O)O[C@@H](OC(=O)NC[C@H](CC(=O)O)c1ccc(Cl)cc1)C(C)C [compound (4), (3R)-4-{[(1S)-2-methyl-1-(2-methylpropanoyloxy)propoxy]carbonylamino}-3-(4-chlorophenyl)butanoic acid]
maximum plasma concentration of (R)-baclofen (Cmax) relative to colonic administration of (R)-baclofen itself [2]: > 2 fold
oral bioavailability as (R)-baclofen [3]: greater than 80%
